The target of experiment [1] is SOS1:KRAS (G12C) interaction (Homo sapiens (Human), UniProt Q07889). Nature of the experiment: SOS1-KRas(G12C) FRET Assay. The format is binding. Particulars: 0.5 nM His10-SOS1 (res. 564-1049), 2.5 nM GST-KRAS (res. 1-169, G12C); read-out: SOS-KRas(G12C) FRET IC50. The gist of the method:
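Compounds were pre-incubated 15 min at 25° C with SOS1 (His10, res. 564-1049; 0.5 nM final) and anti-6His-XL665, then GST-KRAS G12C (res. 1-169; 2.5 nM final) with anti-GST-Eu(K) was added for 2 h at RT. The buffer was PBS, 0.1% BSA, 5 mM MgCl2, 100 mM KF, 5 mM DTT with 0.5% DMSO. The 665/615 nm signal was normalised to DMSO and no-SOS1 controls, and IC50 and Hill coefficient were fitted by non-linear regression.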

Another experiment concerns the target human SOS1 (Homo sapiens (Human), UniProt Q07889). Put plainly: Surface Plasmon Resonance (SPR) SOS1 Binding Assay. To be noted: biotinylated SOS1 (res. 564-1049), 25° C., kinetic or steady state fit, read-out: KD for hSOS1. On the procedure:
Binding to SOS1 was measured using a SPR assay with purified recombinant human SOS1 substrate (res. 564-1049 with N-terminal Avi tag; purified and biotinylated based on Hillig, et al., Proc Natl Acad Sci USA (2019); 116(7):2551-2560). SPR measurements were performed on a Biacore 8K SPR instrument (GE Healthcare, Sweden). Assays were performed at 25° C. using Series S SA sensor chips pre-coated with streptavidin (GE Healthcare, Cat. BR100531). Biotinylated SOS1 diluted in sample buffer (20 mM Tris HCl, 150 mM NaCl, 1 mM DTT, 0.05% TWEEN 20, 1 mM MgCl2, pH 8.0) was captured to one flow cell of the chip to about 3,000 resonance units (RU) using sample buffer supplemented with 5% DMSO as a running buffer. Serial dilutions of the assayed compounds in the running buffer at 100, 50 or 0.5 μM were injected for 60 s at a flow rate of 30 μL/min and association phases were recorded. Dissociation of the samples was monitored for 600 s. Data processing was performed using Biacore Insight Software (Biacore, GE Healthcare). Sensorgrams recorded on a SA flow cell without captured protein were subtracted from sensorgrams recorded on the SOS1 surface. Blank injections of running buffer were used for double referencing and solvent correction was applied to all sample sensorgrams to correct for buffer mismatches. KDs were estimated using a kinetic or steady state, where applicable, fitting model describing a reversible equilibrium with 1:1 binding between SOS1 and the compound.

By IC50 is commonly meant the concentration that inhibits the measured activity by half. In general, Kd refers to the free concentration of one partner at which half of the binding sites on the other are occupied at equilibrium, for simple one-to-one binding.

Chain of SOS1:KRAS (G12C) interaction (Q07889 564-1049, stated change not applied): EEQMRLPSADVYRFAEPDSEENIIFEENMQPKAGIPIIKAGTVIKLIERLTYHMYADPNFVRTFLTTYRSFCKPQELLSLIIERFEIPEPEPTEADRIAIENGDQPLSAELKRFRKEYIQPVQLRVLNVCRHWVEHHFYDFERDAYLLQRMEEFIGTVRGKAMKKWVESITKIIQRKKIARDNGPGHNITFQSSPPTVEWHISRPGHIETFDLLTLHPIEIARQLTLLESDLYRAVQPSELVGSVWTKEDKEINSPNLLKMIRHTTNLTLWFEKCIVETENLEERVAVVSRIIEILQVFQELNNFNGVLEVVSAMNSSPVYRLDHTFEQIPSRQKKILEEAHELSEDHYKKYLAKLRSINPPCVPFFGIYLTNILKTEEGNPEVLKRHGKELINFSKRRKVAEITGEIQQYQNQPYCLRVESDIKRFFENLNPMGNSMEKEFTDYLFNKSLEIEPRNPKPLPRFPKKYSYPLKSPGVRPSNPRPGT
Chain of human SOS1 (Q07889 564-1049): as the sequence (Q07889 564-1049, stated change not applied) above

Take `Cc1c([C@@H](C)Nc2nn(C)c(=O)c3cc(=O)n(C4(C)CC4)cc23)cccc1C(F)(F)F` [Example 15, (R)-2-methyl-4-((1-(2-methyl-3-(trifluoromethyl)phenyl)ethyl)amino)-6-(1-methylcyclopropyl)-2,6-dihydropyrido[3,4-d]pyridazine-1,7-dione]: in experiment [1], the IC50 stood at 198 nM. Moreover, the Kd at human SOS1 was 40 nM.
`Cc1c([C@@H](C)Nc2nn(C)c(=O)c3cc(=O)n(C45CC(C4)C5)cc23)cccc1C(F)(F)F` [Example 16, (R)-6-(bicyclo[1.1.1]pentan-1-yl)-2-methyl-4-((1-(2-methyl-3-(trifluoromethyl)phenyl)ethyl)amino)-2,6-dihydropyrido[3,4-d]pyridazine-1,7-dione]: the IC50 in experiment [1] stood at 235 nM. Besides, the Kd at human SOS1 is 84 nM.
In the same order, the values of `C[C@@H](Nc1nn(C)c(=O)c2cc(=O)n(C3CC3)cc12)c1cccc(C(F)F)c1F` [Example 17, (R)-6-cyclopropyl-4-((1-(3-(difluoromethyl)-2-fluorophenyl)ethyl)amino)-2-methyl-2,6-dihydropyrido[3,4-d]pyridazine-1,7-dione] are 248 nM and 31 nM.
The like results for `C[C@@H](Nc1nn(C)c(=O)c2cc(=O)n(C3CCOCC3)cc12)c1cccc(C(F)F)c1F` [Example 18, (R)-4-((1-(3-(difluoromethyl)-2-fluorophenyl)ethyl)amino)-2-methyl-6-(tetrahydro-2H-pyran-4-yl)-2,6-dihydropyrido[3,4-d]pyridazine-1,7-dione] were, in that order, 53.8 nM and 16 nM.
The like results for `CCOc1c(=O)n(C2CC2)cc2c(N[C@H](C)c3cccc(C(F)(F)F)c3C)nn(C)c(=O)c12` [Example 19, (R)-6-cyclopropyl-8-ethoxy-2-methyl-4-((1-(2-methyl-3-(trifluoromethyl)phenyl)ethyl)amino)-2,6-dihydropyrido[3,4-d]pyridazine-1,7-dione] were, in that order, 806 nM and 161 nM.
Turning to `Cc1c([C@@H](C)Nc2nn(C)c(=O)c3c(N4CC[C@@H](N)C4)c(=O)n(C4CC4)cc23)cccc1C(F)(F)F` [Example 20, 8-((R)-3-aminopyrrolidin-1-yl)-6-cyclopropyl-2-methyl-4-(((R)-1-(2-methyl-3-(trifluoromethyl)phenyl)ethyl)amino)-2,6-dihydropyrido[3,4-d]pyridazine-1,7-dione], the IC50 in experiment [1] is 284 nM. Moreover, on human SOS1, the dissociation constant (Kd) amounted to 63 nM.
As for `Cc1c([C@@H](C)Nc2nn(C)c(=O)c3c(N4CC[C@H](N)C4)c(=O)n(C4CC4)cc23)cccc1C(F)(F)F` [Example 21, 8-((S)-3-aminopyrrolidin-1-yl)-6-cyclopropyl-2-methyl-4-(((R)-1-(2-methyl-3-(trifluoromethyl)phenyl)ethyl)amino)-2,6-dihydropyrido[3,4-d]pyridazine-1,7-dione], the half-maximal inhibitory concentration (IC50) in experiment [1] was determined as 300 nM. In addition, on human SOS1, the Kd was 70 nM.
The like results for `Cc1c([C@@H](C)Nc2nn(C)c(=O)c3cc(=O)n(C4CCNCC4)cc23)cccc1C(F)(F)F` [Example 22, (R)-2-methyl-4-((1-(2-methyl-3-(trifluoromethyl)phenyl)ethyl)amino)-6-(piperidin-4-yl)-2,6-dihydropyrido[3,4-d]pyridazine-1,7-dione] were, in that order, 350 nM and 74 nM.
`Cc1c([C@@H](C)Nc2nn(CCN)c(=O)c3cc(=O)n(C4CC4)cc23)cccc1C(F)(F)F` [Example 24, (R)-2-(2-aminoethyl)-6-cyclopropyl-4-((1-(2-methyl-3-(trifluoromethyl)phenyl)ethyl)amino)-2,6-dihydropyrido[3,4-d]pyridazine-1,7-dione]: the IC50 in experiment [1] was determined as 239 nM. The Kd on human SOS1 was determined as 34 nM.
In the same order, the values of `Cc1c([C@@H](C)Nc2nn(C)c(=O)c3cc(=O)n([C@H]4C[C@H](n5ccnc5)C4)cc23)cccc1C(F)(F)F` [Example 29, 6-((1r,3R)-3-(1H-imidazol-1-yl)cyclobutyl)-2-methyl-4-(((R)-1-(2-methyl-3-(trifluoromethyl)phenyl)ethyl)amino)-2,6-dihydropyrido[3,4-d]pyridazine-1,7-dione] are 61.9 nM and 42 nM.
With `Cc1c([C@@H](C)Nc2nn(C)c(=O)c3c([C@H]4CCCN4)c(=O)n(C4CC4)cc23)cccc1C(F)(F)F` [Example 35, 6-cyclopropyl-2-methyl-4-(((R)-1-(2-methyl-3-(trifluoromethyl)phenyl)ethyl)amino)-8-((R)-pyrrolidin-2-yl)-2,6-dihydropyrido[3,4-d]pyridazine-1,7-dione], the IC50 in experiment [1] stood at 78.4 nM. Besides, the Kd at human SOS1 turned out to be 17 nM.
Turning to `C[C@@H](Nc1nn(C)c(=O)c2cc(=O)n(C3CCOCC3)cc12)c1cccc(C(C)(F)F)c1F` [Example 36, (R)-4-((1-(3-(1,1-difluoroethyl)-2-fluorophenyl)ethyl)amino)-2-methyl-6-(tetrahydro-2H-pyran-4-yl)-2,6-dihydropyrido[3,4-d]pyridazine-1,7-dione], the IC50 in experiment [1] turned out to be 33.3 nM. Further, at human SOS1, the Kd came to 16 nM.
The like results for `C[C@@H](Nc1nn(C)c(=O)c2cc(=O)n(C3CCOCC3)cc12)c1cccc(C(F)(F)C(C)(C)O)c1F` [Example 40, (R)-4-((1-(3-(1,1-difluoro-2-hydroxy-2-methylpropyl)-2-fluorophenyl)ethyl)amino)-2-methyl-6-(tetrahydro-2H-pyran-4-yl)-2,6-dihydropyrido[3,4-d]pyridazine-1,7-dione] were, in that order, 21.1 nM and 9 nM.
In the same order, the values of `COc1c(=O)n(C2CCOCC2)cc2c(N[C@H](C)c3cccc(C(F)(F)C(C)(C)O)c3F)nn(C)c(=O)c12` [Example 41, (R)-4-((1-(3-(1,1-difluoro-2-hydroxy-2-methylpropyl)-2-fluorophenyl)ethyl)amino)-8-methoxy-2-methyl-6-(tetrahydro-2H-pyran-4-yl)-2,6-dihydropyrido[3,4-d]pyridazine-1,7-dione] are 27.9 nM and 14 nM.
Take `C[C@@H](Nc1nn(C)c(=O)c2cc(=O)n(C3CC3)cc12)c1cccc(C(F)(F)C(C)(C)O)c1F` [Example 42, (R)-6-cyclopropyl-4-((1-(3-(1,1-difluoro-2-hydroxy-2-methylpropyl)-2-fluorophenyl)ethyl)amino)-2-methyl-2,6-dihydropyrido[3,4-d]pyridazine-1,7-dione]: the IC50 in experiment [1] stood at 54.9 nM. Besides, the equilibrium dissociation constant (Kd) on human SOS1 turned out to be 34 nM.
In the case of `C[C@@H](Nc1nn(C)c(=O)c2cc(=O)n(C3(C(F)F)CC3)cc12)c1cccc(C(F)F)c1F` [Example 43, (R)-4-((1-(3-(difluoromethyl)-2-fluorophenyl)ethyl)amino)-6-(1-(difluoromethyl)cyclopropyl)-2-methyl-2,6-dihydropyrido[3,4-d]pyridazine-1,7-dione], the IC50 in experiment [1] was determined as 60.5 nM. In addition, the Kd at human SOS1 is 24 nM.
The like results for `C[C@@H](Nc1nn(C)c(=O)c2cc(=O)n(C3CCOCC3)cc12)c1cccc2c(F)coc12` [Example 46, (R)-4-((1-(3-fluorobenzofuran-7-yl)ethyl)amino)-2-methyl-6-(tetrahydro-2H-pyran-4-yl)-2,6-dihydropyrido[3,4-d]pyridazine-1,7-dione] were, in that order, 62.4 nM and 21 nM.
The like results for `C[C@@H](Nc1nn(C)c(=O)c2cc(=O)n(C3CCOCC3)cc12)c1cccc2c1OCC2(F)F` [Example 47, (R)-4-((1-(3,3-difluoro-2,3-dihydrobenzofuran-7-yl)ethyl)amino)-2-methyl-6-(tetrahydro-2H-pyran-4-yl)-2,6-dihydropyrido[3,4-d]pyridazine-1,7-dione] were, in that order, 82.4 nM and 6 nM.
`CC(=O)c1c(=O)n(C2CC2)cc2c(N[C@H](C)c3cccc(C(F)(F)F)c3C)nn(C)c(=O)c12` [Example 48, (R)-8-acetyl-6-cyclopropyl-2-methyl-4-((1-(2-methyl-3-(trifluoromethyl)phenyl)ethyl)amino)-2,6-dihydropyrido[3,4-d]pyridazine-1,7-dione]: the IC50 in experiment [1] is 192 nM. For the same molecule, the dissociation constant (Kd) at human SOS1 amounted to 75 nM.
Turning to `COc1c(=O)n(C2CCCCC2)cc2c(N[C@H](C)c3cccc(C(F)F)c3F)nn(C)c(=O)c12` [Example 49, (R)-6-cyclohexyl-4-((1-(3-(difluoromethyl)-2-fluorophenyl)ethyl)amino)-8-methoxy-2-methyl-2,6-dihydropyrido[3,4-d]pyridazine-1,7-dione], the IC50 in experiment [1] turned out to be 51.3 nM. The Kd on human SOS1 was 13 nM.

Values taken from patent publication US20240279221A1, “HETEROCYCLIC COMPOUNDS AND METHODS OF USE” (Schrödinger, Inc., priority 2021, published 2024).
